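Values below derive from 48-hour exposures of cells grown in 96-well plates, with endpoints linearly interpolated between the two concentrations bracketing the appropriate inhibition level. GI50 is the concentration that inhibits growth by half.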 The source made the active and inactive calls. Cut-off read from the data, not from the text of the source: active = GI50 up to about 1.1 µM and inactive = higher.
Key:
Experiment in all cases: NCI anticancer screen, dose series, 48 h
CCRF-CEM = tested on: CCRF-CEM
IGROV-1 = tested on: IGROV-1
K562 = tested on: K562
NCI-H226 = tested on: NCI-H226
NCI-H522 = tested on: NCI-H522
OVCAR-3 = tested on: OVCAR-3
OVCAR-4 = tested on: OVCAR-4
RXF 393 = tested on: RXF 393
SF-268 = tested on: SF-268
SF-295 = tested on: SF-295
SF-539 = tested on: SF-539
SK-MEL-28 = tested on: SK-MEL-28
SK-OV-3 = tested on: SK-OV-3
SNB-19 = tested on: SNB-19
SNB-75 = tested on: SNB-75
SW-620 = tested on: SW-620
TK-10 = tested on: TK-10
SR = tested on: SR

Structure (SMILES) | GI50 (CCRF-CEM) | GI50 (IGROV-1) | GI50 (K562) | GI50 (NCI-H226) | GI50 (NCI-H522) | GI50 (OVCAR-3) | GI50 (OVCAR-4) | GI50 (RXF 393) | GI50 (SF-268) | GI50 (SF-295) | GI50 (SF-539) | GI50 (SK-MEL-28) | GI50 (SK-OV-3) | GI50 (SNB-19) | GI50 (SNB-75) | GI50 (SW-620) | GI50 (TK-10) | GI50 (SR)
COC1(C)C(=O)N2C1N(C(=O)OC(C)(C)C)CC2(C)C (stereo not given) | > 100 µM (inactive) | > 100 µM (inactive) | > 100 µM (inactive) | > 100 µM (inactive) | > 100 µM (inactive) | > 100 µM (inactive) | > 100 µM (inactive) | > 100 µM (inactive) | > 100 µM (inactive) | > 100 µM (inactive) | > 100 µM (inactive) | > 100 µM (inactive) | > 100 µM (inactive) | > 100 µM (inactive) | > 100 µM (inactive) | 17.5 µM (inactive) | > 100 µM (inactive) | –
CCOC(=O)C(=C=Cc1cccs1)C(=O)c1ccccc1 | 29.1 µM (inactive) | 17.3 µM (inactive) | 37.4 µM (inactive) | 15 µM (inactive) | 15.1 µM (inactive) | – | 17 µM (inactive) | – | 15.9 µM (inactive) | 17.8 µM (inactive) | 16.5 µM (inactive) | 14.8 µM (inactive) | 20.3 µM (inactive) | – | 15.8 µM (inactive) | 18 µM (inactive) | 15 µM (inactive) | 19.9 µM (inactive)
C=CCc1cc(-c2cc(CC=C)c(O)c(CNC)c2)cc(CNC)c1O | 7.4 µM (inactive) | 18 µM (inactive) | 10.4 µM (inactive) | 16.9 µM (inactive) | 14.8 µM (inactive) | 14.7 µM (inactive) | 16.5 µM (inactive) | – | 16.3 µM (inactive) | 16.9 µM (inactive) | – | 19.5 µM (inactive) | – | 13.3 µM (inactive) | 11 µM (inactive) | 17.3 µM (inactive) | 17.7 µM (inactive) | –
N#CC(C#N)=C1SCC(=O)CS1 | > 100 µM (inactive) | > 100 µM (inactive) | > 100 µM (inactive) | > 100 µM (inactive) | > 100 µM (inactive) | > 100 µM (inactive) | > 100 µM (inactive) | > 100 µM (inactive) | > 100 µM (inactive) | > 100 µM (inactive) | > 100 µM (inactive) | – | > 100 µM (inactive) | > 100 µM (inactive) | 89.1 µM (inactive) | > 100 µM (inactive) | > 100 µM (inactive) | > 100 µM (inactive)
O=C1CSC(/C(=C/c2ccccc2)c2nc3ccccc3[nH]2)=N1 | 34 µM (inactive) | 44.9 µM (inactive) | > 100 µM (inactive) | 7.55 µM (inactive) | 41.9 µM (inactive) | > 10 µM (inactive) | > 100 µM (inactive) | – | > 100 µM (inactive) | 63.8 µM (inactive) | 23.6 µM (inactive) | > 100 µM (inactive) | 23.3 µM (inactive) | 25.9 µM (inactive) | 14.2 µM (inactive) | > 100 µM (inactive) | > 100 µM (inactive) | 68.2 µM (inactive)
COC(=O)/C(C#N)=C1\CCC(C(=O)OC)N1C (stereo not given) | > 100 µM (inactive) | > 100 µM (inactive) | > 100 µM (inactive) | – | > 100 µM (inactive) | > 100 µM (inactive) | > 100 µM (inactive) | > 100 µM (inactive) | > 100 µM (inactive) | > 100 µM (inactive) | > 100 µM (inactive) | > 100 µM (inactive) | > 100 µM (inactive) | > 100 µM (inactive) | > 100 µM (inactive) | – | > 100 µM (inactive) | > 100 µM (inactive)
C=Cc1c(-c2ccccc2)cnc2[nH]c3ccccc3c12 | > 50 µM (inactive) | > 50 µM (inactive) | > 50 µM (inactive) | – | > 50 µM (inactive) | > 50 µM (inactive) | > 50 µM (inactive) | > 50 µM (inactive) | > 50 µM (inactive) | > 50 µM (inactive) | – | > 50 µM (inactive) | > 50 µM (inactive) | > 50 µM (inactive) | 6.59 µM (inactive) | > 50 µM (inactive) | > 50 µM (inactive) | > 50 µM (inactive)
CCCC(O)c1cn(-c2cccc(S(=O)(=O)O)c2)nn1 (stereo not given) | > 100 µM (inactive) | > 100 µM (inactive) | > 100 µM (inactive) | > 100 µM (inactive) | > 100 µM (inactive) | > 100 µM (inactive) | > 100 µM (inactive) | > 100 µM (inactive) | > 100 µM (inactive) | > 100 µM (inactive) | > 100 µM (inactive) | > 100 µM (inactive) | > 100 µM (inactive) | > 100 µM (inactive) | > 100 µM (inactive) | > 100 µM (inactive) | > 100 µM (inactive) | –
C/C(=N/Nc1ccc([N+](=O)[O-])cc1[N+](=O)[O-])C(CC(C(=O)Nc1ccccc1C)/C(C)=N\Nc1ccc([N+](=O)[O-])cc1[N+](=O)[O-])C(=O)Nc1ccccc1C (stereo not given) | > 100 µM (inactive) | 15.8 µM (inactive) | > 100 µM (inactive) | 6.65 µM (inactive) | 0.424 µM (active) | 7.06 µM (inactive) | 5.74 µM (inactive) | 6.49 µM (inactive) | 7.67 µM (inactive) | 16.1 µM (inactive) | 13 µM (inactive) | 21.9 µM (inactive) | 30.1 µM (inactive) | 14 µM (inactive) | 10.1 µM (inactive) | 18.8 µM (inactive) | 17.9 µM (inactive) | –
N#CC1CC2(C(=O)C1=O)c1ccccc1-c1ccccc12 (stereo not given) | 67.5 µM (inactive) | > 100 µM (inactive) | 86.1 µM (inactive) | > 100 µM (inactive) | > 100 µM (inactive) | 87.7 µM (inactive) | > 100 µM (inactive) | > 100 µM (inactive) | > 100 µM (inactive) | > 100 µM (inactive) | – | > 100 µM (inactive) | > 100 µM (inactive) | > 100 µM (inactive) | > 100 µM (inactive) | > 100 µM (inactive) | > 100 µM (inactive) | > 100 µM (inactive)
N#CCC(=O)N1CCCCCCC1 | > 100 µM (inactive) | > 100 µM (inactive) | > 100 µM (inactive) | – | – | – | > 100 µM (inactive) | > 100 µM (inactive) | > 100 µM (inactive) | > 100 µM (inactive) | > 100 µM (inactive) | > 100 µM (inactive) | > 100 µM (inactive) | > 100 µM (inactive) | – | 5.87 µM (inactive) | > 100 µM (inactive) | –
O=C(COC(=O)c1cccc2c(=O)c3ccccc3[nH]c12)Nc1ccc(Cl)cc1 | 54 µM (inactive) | 70.6 µM (inactive) | > 100 µM (inactive) | 72.8 µM (inactive) | 23.9 µM (inactive) | > 100 µM (inactive) | 95.9 µM (inactive) | 16.8 µM (inactive) | > 100 µM (inactive) | 25.5 µM (inactive) | 26.1 µM (inactive) | > 100 µM (inactive) | 82.8 µM (inactive) | 35 µM (inactive) | 24.3 µM (inactive) | 85.5 µM (inactive) | 13.1 µM (inactive) | 19.7 µM (inactive)
COC(=O)C1=C(O)C(O)=C(C(=O)OC)CC1 | > 100 µM (inactive) | > 100 µM (inactive) | > 100 µM (inactive) | > 100 µM (inactive) | > 100 µM (inactive) | > 100 µM (inactive) | > 100 µM (inactive) | 17.9 µM (inactive) | > 100 µM (inactive) | > 100 µM (inactive) | > 100 µM (inactive) | > 100 µM (inactive) | > 100 µM (inactive) | > 100 µM (inactive) | > 100 µM (inactive) | > 100 µM (inactive) | > 100 µM (inactive) | > 100 µM (inactive)
CC(C)(C)NNC(=O)/C(=C/c1ccc([N+](=O)[O-])cc1)NC(=O)c1ccccc1 | 31.3 µM (inactive) | > 100 µM (inactive) | > 100 µM (inactive) | 24.2 µM (inactive) | 24.2 µM (inactive) | > 100 µM (inactive) | 75 µM (inactive) | > 100 µM (inactive) | 55.8 µM (inactive) | > 100 µM (inactive) | > 100 µM (inactive) | > 100 µM (inactive) | > 100 µM (inactive) | > 100 µM (inactive) | > 100 µM (inactive) | – | > 100 µM (inactive) | 21.6 µM (inactive)
COc1ccc(Nc2nc3c(N)cc(C(F)(F)F)cc3nc2-c2ccccc2)cc1 | > 100 µM (inactive) | 52 µM (inactive) | > 100 µM (inactive) | 68.9 µM (inactive) | 44.3 µM (inactive) | 33.6 µM (inactive) | 37.2 µM (inactive) | 27.2 µM (inactive) | 75.7 µM (inactive) | 71.3 µM (inactive) | > 100 µM (inactive) | > 100 µM (inactive) | 83 µM (inactive) | 71.6 µM (inactive) | 28.8 µM (inactive) | > 100 µM (inactive) | > 100 µM (inactive) | 21.9 µM (inactive)
Cc1cccc2c1CCC21OC(=O)c2c1ccc1ccccc21 (stereo not given) | 38.6 µM (inactive) | 55.2 µM (inactive) | 21.7 µM (inactive) | 56.4 µM (inactive) | > 100 µM (inactive) | 26 µM (inactive) | 52.6 µM (inactive) | 64 µM (inactive) | > 100 µM (inactive) | 55.5 µM (inactive) | – | 58.2 µM (inactive) | 37.3 µM (inactive) | 90.4 µM (inactive) | 82.6 µM (inactive) | 39.2 µM (inactive) | 36.1 µM (inactive) | 29.2 µM (inactive)
COc1ccc(C(=O)C/C(=N/NC(N)=S)C(=O)Nc2ccccc2)cc1 | > 100 µM (inactive) | > 100 µM (inactive) | > 100 µM (inactive) | > 100 µM (inactive) | – | > 100 µM (inactive) | 31.9 µM (inactive) | > 100 µM (inactive) | > 100 µM (inactive) | > 100 µM (inactive) | > 100 µM (inactive) | > 100 µM (inactive) | > 100 µM (inactive) | > 100 µM (inactive) | 99.3 µM (inactive) | > 100 µM (inactive) | > 100 µM (inactive) | –
